In patent US20240287076A1, “COMPOUNDS FOR TARGETING DEGRADATION OF BRUTON'S TYROSINE KINASE” (BIOGEN MA INC., priority 2021, published 2024):

Each compound was assayed against T1, BTK (Homo sapiens, UniProt Q06187) (assay: BTK degradation assay using the HiBiT Method (Nano-Glo HiBiT Lytic Assay, GM01501.3 cells)). Settings: HiBiT Degradation on GM01501.3 BTK @ 6 hours.
T1 construct: The GM01501.3 cell line endogenously expresses BTK with a HiBiT fusion tag via CRISPR knock-in at its C-terminal region; endogenous in cells; host or cells: GM01501.3 (GM01501 cells engineered by CRISPR knock-in of HiBiT at the BTK locus)
T1 sequence (Q06187 whole entry, the tested form may be a part): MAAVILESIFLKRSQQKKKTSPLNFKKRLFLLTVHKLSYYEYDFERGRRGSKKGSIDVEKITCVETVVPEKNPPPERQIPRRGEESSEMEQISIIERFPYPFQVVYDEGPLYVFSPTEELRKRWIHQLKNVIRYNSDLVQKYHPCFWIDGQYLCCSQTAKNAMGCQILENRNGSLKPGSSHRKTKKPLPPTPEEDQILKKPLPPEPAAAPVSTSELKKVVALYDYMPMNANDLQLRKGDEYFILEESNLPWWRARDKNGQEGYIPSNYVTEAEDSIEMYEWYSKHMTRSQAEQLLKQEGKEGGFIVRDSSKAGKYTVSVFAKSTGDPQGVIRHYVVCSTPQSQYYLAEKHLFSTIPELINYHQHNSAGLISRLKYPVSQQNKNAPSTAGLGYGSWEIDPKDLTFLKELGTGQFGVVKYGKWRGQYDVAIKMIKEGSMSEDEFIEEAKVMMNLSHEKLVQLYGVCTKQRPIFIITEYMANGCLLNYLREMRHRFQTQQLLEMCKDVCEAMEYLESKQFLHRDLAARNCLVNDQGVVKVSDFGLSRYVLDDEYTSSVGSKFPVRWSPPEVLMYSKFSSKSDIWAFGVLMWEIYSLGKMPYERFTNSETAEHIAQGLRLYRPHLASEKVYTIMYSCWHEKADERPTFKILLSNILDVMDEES
Format: cell-based
Outline: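 CRISPR knock-in GM01501.3 cells expressing endogenous BTK with C-terminal HiBiT tag, treated 6 h at 37 °C with compounds, 11-point half-log titration from 10 μM top, duplicates. Remaining BTK quantified by Nano-Glo HiBiT lytic luminescence versus DMSO controls; DC50 reported.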

DC50, < 100 nM:
CC(C)(C)c1nc(C(=O)NCc2ccc(-c3ncnn4cc(-c5ccc(CN6CCOCC6Cc6ccc(OC7CCC(=O)NC7=O)cc6)cn5)cc34)cc2F)no1 (stereo not shown) [Example 238, 5-(tert-butyl)-N-(4-(6-(5-((3-(4-((2,6-dioxopiperidin-3-yl)oxy)benzyl)morpholino)methyl)pyridin-2-yl)pyrrolo [2,1-f][1,2,4]triazin-4-yl)-2-fluorobenzyl)-1,2,4-oxadiazole-3-carboxamide]
CC(C)(C)c1nc(C(=O)NCc2ccc(-c3ncnn4cc(-c5ccc(CN6CCC(CCc7ccc(OC8CCC(=O)NC8=O)cc7)CC6)cn5)cc34)cc2F)no1 (stereo not shown) [Example 239, 5-(tert-butyl)-N-(4-(6-(5-((4-(4-((2,6-dioxopiperidin-3-yl)oxy)phenethyl)piperidin-1-yl)methyl)pyridin-2-yl)pyrrolo [2,1-f][1,2,4]triazin-4-yl)-2-fluorobenzyl)-1,2,4-oxadiazole-3-carboxamide]
Cc1cc(-c2ncnn3cc(-c4ccc(CN5CCC(c6ccc(NC7CCC(=O)NC7=O)cc6)C(F)(F)C5)cc4)cc23)ccc1CNC(=O)c1noc(C(C)(C)C)n1 (stereo not shown) [Example 240, 5-(tert-butyl)-N-(4-(6-(4-((4-(4-((2,6-dioxopiperidin-3-yl)amino)phenyl)-3,3-difluoropiperidin-1-yl)methyl)phenyl)pyrrolo[2,1-f] [1,2,4]triazin-4-yl)-2-methylbenzyl)-1,2,4-oxadiazole-3-carboxamide]
Cc1cc(-c2ncnn3cc(-c4ccc(CN5CCC(c6ccc(NC7CCC(=O)NC7=O)cc6)CC5)cn4)cc23)ccc1CNC(=O)c1noc(C(C)(C)C)n1 (stereo not shown) [Example 241, 5-(tert-butyl)-N-(4-(6-(5-((4-(4-((2,6-dioxopiperidin-3-yl)amino)phenyl)piperidin-1-yl)methyl)pyridin-2-yl)pyrrolo[2,1-f][1,2,4]triazin-4-yl)-2-methylbenzyl)-1,2,4-oxadiazole-3-carboxamide]
Cn1nc(N2CCC(=O)NC2=O)c2ccc(C3CCN(Cc4ccc(-c5cc6c(-c7ccc(CNC(=O)c8noc(C(C)(C)C)n8)c(F)c7)ncnn6c5)c(F)c4)CC3)cc21 [Example 242, 5-(tert-butyl)-N-(4-(6-(4-((4-(3-(2,4-dioxotetrahydropyrimidin-1(2H)-yl)-1-methyl-1H-indazol-6-yl)piperidin-1-yl)methyl)-2-fluorophenyl)pyrrolo[2,1-f][1,2,4]triazin-4-yl)-2-fluorobenzyl)-1,2,4-oxadiazole-3-carboxamide]
Cn1nc(N2CCC(=O)NC2=O)c2ccc(C3CCN(Cc4ccc(-c5cc6c(-c7ccc(CNC(=O)c8noc(C(C)(C)C)n8)c(F)c7)ncnn6c5)nc4)CC3)cc21 [Example 243, 5-(tert-butyl)-N-(4-(6-(5-((4-(3-(2,4-dioxotetrahydropyrimidin-1(2H)-yl)-1-methyl-1H-indazol-6-yl)piperidin-1-yl)methyl)pyridin-2-yl)pyrrolo[2,1-f] [1,2,4]triazin-4-yl)-2-fluorobenzyl)-1,2,4-oxadiazole-3-carboxamide]
Cn1nc(N2CCC(=O)NC2=O)c2ccc(C3CCN(Cc4ccc(-c5cc6c(-c7ccc(CNC(=O)c8noc(C(C)(C)C)n8)c(F)c7)ncnn6c5)cn4)CC3)cc21 [Example 244, 5-(tert-butyl)-N-(4-(6-(6-((4-(3-(2,4-dioxotetrahydropyrimidin-1(2H)-yl)-1-methyl-1H-indazol-6-yl)piperidin-1-yl)methyl)pyridin-3-yl)pyrrolo[2,1-f][1,2,4]triazin-4-yl)-2-fluorobenzyl)-1,2,4-oxadiazole-3-carboxamide]
Cc1cc(-c2ncnn3cc(-c4ccc(CN5CCC(c6ccc7c(N8CCC(=O)NC8=O)nn(C)c7c6)CC5)c(F)c4)cc23)ccc1CNC(=O)c1noc(C(C)(C)C)n1 [Example 245, 5-(tert-butyl)-N-(4-(6-(4-((4-(3-(2,4-dioxotetrahydropyrimidin-1(^2H)-yl)-1-methyl-1H-indazol-6-yl)piperidin-1-yl)methyl)-3-fluorophenyl)pyrrolo[2,1-f][1,2,4]triazin-4-yl)-2-methylbenzyl)-1,2,4-oxadiazole-3-carboxamide]
Cc1cc(-c2ncnn3cc(-c4ccc(CN5CCC(c6ccc7c(N8CCC(=O)NC8=O)nn(C)c7c6)CC5)cc4F)cc23)ccc1CNC(=O)c1noc(C(C)(C)C)n1 [Example 246, 5-(tert-butyl)-N-(4-(6-(4-((4-(3-(2,4-dioxotetrahydropyrimidin-1(2H)-yl)-1-methyl-1H-indazol-6-yl)piperidin-1-yl)methyl)-2-fluorophenyl)pyrrolo[2,1-f][1,2,4]triazin-4-yl)-2-methylbenzyl)-1,2,4-oxadiazole-3-carboxamide]
Cc1cc(-c2ncnn3cc(-c4cccc(CN5CCC(c6ccc(OC7CCC(=O)NC7=O)cc6)CC5)n4)cc23)ccc1CNC(=O)c1noc(C(C)(C)C)n1 (stereo not shown) [Example 247, 5-(tert-butyl)-N-(4-(6-(6-((4-(4-((2,6-dioxopiperidin-3-yl)oxy)phenyl)piperidin-1-yl)methyl)pyridin-2-yl)pyrrolo[2,1-f][1,2,4]triazin-4-yl)-2-methylbenzyl)-1,2,4-oxadiazole-3-carboxamide]
Cc1cc(-c2ncnn3cc(-c4cccc(CN5CCC(c6ccc7c(N8CCC(=O)NC8=O)nn(C)c7c6)CC5)n4)cc23)ccc1CNC(=O)c1noc(C(C)(C)C)n1 [Example 248, 5-(tert-butyl)-N-(4-(6-(6-((4-(3-(2,4-dioxotetrahydropyrimidin-1(2H)-yl)-1-methyl-1H-indazol-6-yl)piperidin-1-yl)methyl)pyridin-2-yl)pyrrolo[2,1-f][1,2,4]triazin-4-yl)-2-methylbenzyl)-1,2,4-oxadiazole-3-carboxamide]
Cc1cc(-c2ncnn3cc(CCN4CCC(c5ccc(NC6CCC(=O)NC6=O)nc5)CC4)cc23)ccc1CNC(=O)c1noc(C(C)(C)C)n1 (stereo not shown) [Example 250, 5-(tert-butyl)-N-(4-(6-(2-(4-(6-((2,6-dioxopiperidin-3-yl)amino)pyridin-3-yl)piperidin-1-yl)ethyl)pyrrolo[2,1-f] [1,2,4]triazin-4-yl)-2-methylbenzyl)-1,2,4-oxadiazole-3-carboxamide]
Cc1cc(-c2ncnn3cc(CCN4CCC(c5ncc(NC6CCC(=O)NC6=O)cc5F)CC4)cc23)ccc1CNC(=O)c1noc(C(C)(C)C)n1 (stereo not shown) [Example 251, 5-(tert-butyl)-N-(4-(6-(2-(4-(5-((2,6-dioxopiperidin-3-yl)amino)-3-fluoropyridin-2-yl)piperidin-1-yl)ethyl)pyrrolo[2,1-f][1,2,4]triazin-4-yl)-2-methylbenzyl)-1,2,4-oxadiazole-3-carboxamide]
Cc1cc(-c2ncnn3cc(CCN4CCC(c5ccc(NC6CCC(=O)NC6=O)cn5)CC4)cc23)ccc1CNC(=O)c1noc(C(C)(C)C)n1 (stereo not shown) [Example 252, 5-(tert-butyl)-N-(4-(6-(2-(4-(5-((2,6-dioxopiperidin-3-yl)amino)pyridin-2-yl)piperidin-1-yl)ethyl)pyrrolo[2,1-f][1,2,4]triazin-4-yl)-2-methylbenzyl)-1,2,4-oxadiazole-3-carboxamide]
Cc1cc(-c2ncnn3cc(CCN4CCC(c5ccc6c(N7CCC(=O)NC7=O)nn(C)c6c5)C(F)(F)C4)cc23)ccc1CNC(=O)c1noc(C(C)(C)C)n1 (stereo not shown) [Example 253, 5-(tert-butyl)-N-(4-(6-(2-(4-(3-(2,4-dioxotetrahydropyrimidin-1(2H)-yl)-1-methyl-1H-indazol-6-yl)-3,3-difluoropiperidin-1-yl)ethyl)pyrrolo[2,1-f][1,2,4]triazin-4-yl)-2-methylbenzyl)-1,2,4-oxadiazole-3-carboxamide]
Cc1cc(-c2ncnn3cc(CCN4CCC(c5ccc(OC6CCC(=O)NC6=O)cc5F)CC4)cc23)ccc1CNC(=O)c1noc(C(C)(C)C)n1 (stereo not shown) [Example 254, 5-(tert-butyl)-N-(4-(6-(2-(4-(4-((2,6-dioxopiperidin-3-yl)oxy)-2-fluorophenyl)piperidin-1-yl)ethyl)pyrrolo[2,1-f][1,2,4]triazin-4-yl)-2-methylbenzyl)-1,2,4-oxadiazole-3-carboxamide]
Cc1cc(-c2ncnn3cc(CCN4CCC(c5ccc6c(C7CCC(=O)NC7=O)nn(C)c6c5)CC4)cc23)ccc1CNC(=O)c1noc(C(C)(C)C)n1 (stereo not shown) [Example 255, 5-(tert-butyl)-N-(4-(6-(2-(4-(3-(2,6-dioxopiperidin-3-yl)-1-methyl-1H-indazol-6-yl)piperidin-1-yl)ethyl)pyrrolo[2,1-f][1,2,4]triazin-4-yl)-2-methylbenzyl)-1,2,4-oxadiazole-3-carboxamide]
Cc1cc(-c2ncnn3cc(CCN4CCC(c5cc6c(cc5F)c(N5CCC(=O)NC5=O)nn6C)CC4)cc23)ccc1CNC(=O)c1noc(C(C)(C)C)n1 [Example 256, 5-(tert-butyl)-N-(4-(6-(2-(4-(3-(2,4-dioxotetrahydropyrimidin-1(2H)-yl)-5-fluoro-1-methyl-1H-indazol-6-yl)piperidin-1-yl)ethyl)pyrrolo[2,1-f][1,2,4]triazin-4-yl)-2-methylbenzyl)-1,2,4-oxadiazole-3-carboxamide]
Cc1cc(-c2ncnn3cc(CCN4CCC(c5ccc6c(N7CCC(=O)NC7=O)nn(C)c6c5)CC4)cc23)ccc1CNC(=O)c1noc(C2(C)CCC2)n1 [Example 257, N-(4-(6-(2-(4-(3-(2,4-dioxotetrahydropyrimidin-1(2H)-yl)-1-methyl-1H-indazol-6-yl)piperidin-1-yl)ethyl)pyrrolo[2,1-f][1,2,4]triazin-4-yl)-2-methylbenzyl)-5-(1-methylcyclobutyl)-1,2,4-oxadiazole-3-carboxamide]
